Experimental data published in the supplement of paper PMC10307832.

Tests used:
Assay in all cases: relative viability (nuclei count vs DMSO), 5 days (fraction); higher = more cells survive
NCI-H1734 = test system: NCI-H1734
How it was run: (§1)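 Each reported value is a median over duplicate plates. It expresses relative viability: treated-well nuclei count divided by vehicle-well nuclei count. Lung cancer cell lines in 1536-well plates were dosed by pin tool a day after seeding, alone with one drug or with a fixed anchor-drug dose plus five library-drug doses (not always all listed) in √10 steps, and nuclei were counted after 5 days.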

EMC-BAC-2 = test system: EMC-BAC-2
How it was run: as §1

NCI-H647 = test system: NCI-H647
How it was run: as §1

NCI-H1915 = test system: NCI-H1915
How it was run: as §1

NCI-H1792 = test system: NCI-H1792
How it was run: as §1

NCI-H2405 = test system: NCI-H2405
How it was run: as §1

LCLC-103H = test system: LCLC-103H
How it was run: as §1

EPLC-272H = test system: EPLC-272H
How it was run: as §1

SK-LU-1 = test system: SK-LU-1
How it was run: as §1

NCI-H1395 = test system: NCI-H1395
How it was run: as §1

NCI-H661 = test system: NCI-H661
How it was run: as §1

NCI-H1975 = test system: NCI-H1975
How it was run: as §1

ABC-1 = test system: ABC-1
How it was run: as §1

RERF-LC-KJ = test system: RERF-LC-KJ
How it was run: as §1

LOU-NH91 = test system: LOU-NH91
How it was run: as §1

201T = test system: 201T
How it was run: as §1

NCI-H1793 = test system: NCI-H1793
How it was run: as §1

UMC-11 = test system: UMC-11
How it was run: as §1

NCI-H23 = test system: NCI-H23
How it was run: as §1

NCI-H1651 = test system: NCI-H1651
How it was run: as §1

NCI-H2023 = test system: NCI-H2023
How it was run: as §1

NCI-H1437 = test system: NCI-H1437
How it was run: as §1

HCC-78 = test system: HCC-78
How it was run: as §1

With `O=c1[nH]c2ccccc2n1C1CCN(CCCC(c2ccc(F)cc2)c2ccc(F)cc2)CC1` [Pimozide] + Cc1nc(NC(=O)N2CCC[C@H]2C(N)=O)sc1-c1ccnc(C(C)(C)C(F)(F)F)c1 [Alpelisib] (partner 2 µM) the relative viability (NCI-H1734; first compound 0.08 µM) was 0.675, the relative viability (NCI-H1734; first compound 0.253 µM) was 0.664 and the relative viability (NCI-H1734; first compound 0.8 µM) was 0.68. For the same molecule, the relative viability (NCI-H1734; first compound 2.53 µM) was 0.744, the relative viability (NCI-H1734; first compound 8 µM) was 0.769 and the relative viability (EMC-BAC-2; first compound 0.08 µM) was 0.653. The relative viability (EMC-BAC-2; first compound 0.253 µM) was 0.703, the relative viability (EMC-BAC-2; first compound 0.8 µM) was 0.682 and the relative viability (EMC-BAC-2; first compound 2.53 µM) was 0.668. For the same molecule, the relative viability (EMC-BAC-2; first compound 8 µM) was 0.744, the relative viability (NCI-H647; first compound 0.08 µM) was 1.11 and the relative viability (NCI-H647; first compound 0.253 µM) was 1.31. The relative viability (NCI-H647; first compound 0.8 µM) was 1.11, the relative viability (NCI-H647; first compound 2.53 µM) was 1 and the relative viability (NCI-H647; first compound 8 µM) was 0.554. The relative viability (NCI-H1915; first compound 0.08 µM) was 1.1, the relative viability (NCI-H1915; first compound 0.253 µM) was 1.06 and the relative viability (NCI-H1915; first compound 0.8 µM) was 0.837. The relative viability (NCI-H1915; first compound 2.53 µM) was 1.08, the relative viability (NCI-H1915; first compound 8 µM) was 0.997 and the relative viability (NCI-H1792; first compound 0.08 µM) was 0.874. It also gave a relative viability (NCI-H1792; first compound 0.253 µM) of 0.661, a relative viability (NCI-H1792; first compound 0.8 µM) of 0.668 and a relative viability (NCI-H1792; first compound 2.53 µM) of 0.575. It also gave a relative viability (NCI-H1792; first compound 8 µM) of 0.836, a relative viability (NCI-H2405; first compound 0.08 µM) of 0.782 and a relative viability (NCI-H2405; first compound 0.253 µM) of 0.622. It also gave a relative viability (NCI-H2405; first compound 0.8 µM) of 0.684, a relative viability (NCI-H2405; first compound 2.53 µM) of 0.741 and a relative viability (NCI-H2405; first compound 8 µM) of 0.61. The relative viability (LCLC-103H; first compound 0.08 µM) was 0.939, the relative viability (LCLC-103H; first compound 0.253 µM) was 0.853 and the relative viability (LCLC-103H; first compound 0.8 µM) was 1.01. The relative viability (LCLC-103H; first compound 2.53 µM) was 0.979, the relative viability (LCLC-103H; first compound 8 µM) was 0.912 and the relative viability (EPLC-272H; first compound 0.08 µM) was 0.838. It also gave a relative viability (EPLC-272H; first compound 0.253 µM) of 0.962, a relative viability (EPLC-272H; first compound 0.8 µM) of 0.894 and a relative viability (EPLC-272H; first compound 2.53 µM) of 0.912. The relative viability (EPLC-272H; first compound 8 µM) was 0.771, the relative viability (SK-LU-1; first compound 0.08 µM) was 0.961 and the relative viability (SK-LU-1; first compound 0.253 µM) was 0.986. It also gave a relative viability (SK-LU-1; first compound 0.8 µM) of 0.926, a relative viability (SK-LU-1; first compound 2.53 µM) of 0.719 and a relative viability (SK-LU-1; first compound 8 µM) of 0.649. The relative viability (NCI-H1395; first compound 0.08 µM) was 1.31, the relative viability (NCI-H1395; first compound 0.253 µM) was 0.958 and the relative viability (NCI-H1395; first compound 0.8 µM) was 1.06. It also gave a relative viability (NCI-H1395; first compound 2.53 µM) of 1.16, a relative viability (NCI-H1395; first compound 8 µM) of 0.952 and a relative viability (NCI-H661; first compound 0.08 µM) of 0.759. It also gave a relative viability (NCI-H661; first compound 0.253 µM) of 0.594, a relative viability (NCI-H661; first compound 0.8 µM) of 0.592 and a relative viability (NCI-H661; first compound 2.53 µM) of 0.494. For the same molecule, the relative viability (NCI-H661; first compound 8 µM) was 0.766, the relative viability (NCI-H1975; first compound 0.08 µM) was 0.64 and the relative viability (NCI-H1975; first compound 0.253 µM) was 0.715. For the same molecule, the relative viability (NCI-H1975; first compound 0.8 µM) was 0.606, the relative viability (NCI-H1975; first compound 2.53 µM) was 0.602 and the relative viability (NCI-H1975; first compound 8 µM) was 0.535. For the same molecule, the relative viability (ABC-1; first compound 0.08 µM) was 0.915, the relative viability (ABC-1; first compound 0.253 µM) was 1.03 and the relative viability (ABC-1; first compound 0.8 µM) was 0.834. It also gave a relative viability (ABC-1; first compound 2.53 µM) of 0.842, a relative viability (ABC-1; first compound 8 µM) of 0.675 and a relative viability (RERF-LC-KJ; first compound 0.08 µM) of 0.693. The relative viability (RERF-LC-KJ; first compound 0.253 µM) was 0.724, the relative viability (RERF-LC-KJ; first compound 0.8 µM) was 0.807 and the relative viability (RERF-LC-KJ; first compound 2.53 µM) was 0.841. It also gave a relative viability (RERF-LC-KJ; first compound 8 µM) of 0.711, a relative viability (LOU-NH91; first compound 0.08 µM) of 0.459 and a relative viability (LOU-NH91; first compound 0.253 µM) of 0.731. The relative viability (LOU-NH91; first compound 0.8 µM) was 0.723, the relative viability (LOU-NH91; first compound 2.53 µM) was 0.733 and the relative viability (LOU-NH91; first compound 8 µM) was 0.7. For the same molecule, the relative viability (201T; first compound 0.08 µM) was 0.999, the relative viability (201T; first compound 0.253 µM) was 1.02 and the relative viability (201T; first compound 0.8 µM) was 1.05. For the same molecule, the relative viability (201T; first compound 2.53 µM) was 1.01, the relative viability (201T; first compound 8 µM) was 0.921 and the relative viability (NCI-H1793; first compound 0.08 µM) was 0.491. It also gave a relative viability (NCI-H1793; first compound 0.253 µM) of 0.567, a relative viability (NCI-H1793; first compound 0.8 µM) of 0.988 and a relative viability (NCI-H1793; first compound 2.53 µM) of 0.665. The relative viability (NCI-H1793; first compound 8 µM) was 0.87, the relative viability (UMC-11; first compound 0.08 µM) was 1.05 and the relative viability (UMC-11; first compound 0.253 µM) was 0.967. It also gave a relative viability (UMC-11; first compound 0.8 µM) of 1.05, a relative viability (UMC-11; first compound 2.53 µM) of 1.04 and a relative viability (UMC-11; first compound 8 µM) of 1.19. For the same molecule, the relative viability (NCI-H23; first compound 0.08 µM) was 0.577, the relative viability (NCI-H23; first compound 0.253 µM) was 0.575 and the relative viability (NCI-H23; first compound 0.8 µM) was 0.718. For the same molecule, the relative viability (NCI-H23; first compound 2.53 µM) was 0.68, the relative viability (NCI-H23; first compound 8 µM) was 0.745 and the relative viability (NCI-H1651; first compound 0.08 µM) was 0.911. For the same molecule, the relative viability (NCI-H1651; first compound 0.253 µM) was 0.945, the relative viability (NCI-H1651; first compound 0.8 µM) was 0.945 and the relative viability (NCI-H1651; first compound 2.53 µM) was 1.04. The relative viability (NCI-H1651; first compound 8 µM) was 0.926, the relative viability (NCI-H2023; first compound 0.08 µM) was 0.524 and the relative viability (NCI-H2023; first compound 0.253 µM) was 0.632. For the same molecule, the relative viability (NCI-H2023; first compound 0.8 µM) was 0.533, the relative viability (NCI-H2023; first compound 2.53 µM) was 0.535 and the relative viability (NCI-H2023; first compound 8 µM) was 0.461. The relative viability (NCI-H1437; first compound 0.08 µM) was 1.04, the relative viability (NCI-H1437; first compound 0.253 µM) was 0.965 and the relative viability (NCI-H1437; first compound 0.8 µM) was 1.02. The relative viability (NCI-H1437; first compound 2.53 µM) was 0.862, the relative viability (NCI-H1437; first compound 8 µM) was 0.916 and the relative viability (HCC-78; first compound 0.08 µM) was 0.406. It also gave a relative viability (HCC-78; first compound 0.253 µM) of 0.366, a relative viability (HCC-78; first compound 0.8 µM) of 0.294 and a relative viability (HCC-78; first compound 2.53 µM) of 0.293. It also gave a relative viability (HCC-78; first compound 8 µM) of 0.329.
